Experimental data from patent US20070254947A1, “Composition for external use” (ROHTO PHARMACEUTICAL CO., LTD., priority 2006, published 2007).

Columns and labels:
[1] = system: Normal human dermal fibroblasts (NHDF-AD)
Description: Normal human dermal fibroblasts (NHDF-AD: product of Kurabo Industries, Ltd.) were inoculated onto a 24-well plate (1.0×10^4 cells/well), and incubated for four days in 1 ml of DMEM containing 10% FBS(vol/vol). Subsequently, the supernatant of the wells was replaced with 1 ml of fresh DMEM containing 10% FBS(vol/vol), and 5 μl of ethanol solution containing a predetermined concentration of tocopherol or 5 μl of ethanol was added to the concentrations shown in Tables 1 and 2, and […] of 0.045% hydroquinone solution was added, followed by incubation for 24 hours. Then, the supernatant of the wells were removed by replacement with 1 ml of medium, and the number of cells that survived was determined by WST-1 assay.

[2] = approximate ratio, reportedly; cited from earlier work
[3] = J. Act. Oxyg. Free Rad. 3:531-54; cited from earlier work

| Compound | hydroquinone-cytotoxicity-reducing activity (rank among tocopherols) [1] | survival rate, times higher than that of Control 1 [1] | ratio of biological activities of α-, β-, γ-, and δ-tocopherols [2] | antioxidant activity against oils and fats (rank) [3] | survival rate compared with Control 1 [1] |
| --- | --- | --- | --- | --- | --- |
| Cc1c(O)cc2c(c1C)O[C@](C)(CCC[C@H](C)CCC[C@H](C)CCCC(C)C)CC2 [γ-tocopherol] | second highest | more than 2.3 times | ~4 | – | – |
| Cc1c(C)c2c(c(C)c1O)CC[C@@](C)(CCC[C@H](C)CCC[C@H](C)CCCC(C)C)O2 [α-tocopherol] | – | more than 1.3 times | approximately 100 | lowest | – |
| Cc1cc(O)c(C)c2c1O[C@](C)(CCC[C@H](C)CCC[C@H](C)CCCC(C)C)CC2 [β-tocopherol] | – | – | ~24 | – | – |
| Cc1cc(O)cc2c1O[C@](C)(CCC[C@H](C)CCC[C@H](C)CCCC(C)C)CC2 [δ-tocopherol] | highest | – | ~0.1 | highest | remarkably higher survival rate |
